The data set in a line: Log P by HPLC on reversed phase columns (EEC directive 79/831 Annex V.A8; methods [a], [b], [c]). The data set is classed as physicochemical. Put shortly:
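Reversed-phase HPLC with LC-UV detection, 10→95% acetonitrile linear gradient; aqueous eluent 0.1% formic acid [a], 0.001 M ammonium acetate, neutral [b], or 0.1% phosphoric acid [c]. Calibrated against C3–C16 alkan-2-ones of known Log P by retention-time linear interpolation; multiple values within a method separated by "+".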

What is called chromatographic logP is a lipophilicity value derived from retention on a column.

For the molecule `N#Cc1cncn1CC(O)c1ccc(Oc2ccc(Cl)cc2)cc1Br` (stereo not drawn) [I-59], the LogP was 3.21^[a].
In the case of `N#Cc1cncn1CC(O)(C#CC1CCCC1)CC1CC1` (stereo not drawn) [I-452], the LogP was 2.62^[a].
As to `CC(O)(Cn1cncc1C#N)c1cnc(Oc2ccc(Cl)cc2F)cc1C(F)(F)F` (stereo not drawn) [I-233], the LogP was 3.29^[a].
In the case of `N#Cc1cncn1CC(O)c1ccc(Oc2ccc(Cl)cc2)cc1Cl` (stereo not drawn) [I-22], the LogP was 3.19^[a].
The same measure, in the same setting: under `N#Cc1cncn1CC(O)c1ccc(Oc2ccc(Cl)cc2)cc1C(F)F` (stereo not drawn) [I-72] stands 3.09^[a].
On to `N#Cc1cncn1CC(O)(c1cc(F)c(F)cc1F)C1(F)CC1` (stereo not drawn) [I-521], for which the LogP was 2.18^[a].
On to `N#Cc1cncn1CC(O)(CC1CC1)c1cc(F)ccc1F` (stereo not drawn) [I-515], for which the LogP is 2.18^[a].
As to `CC(O)(Cn1cncc1Cl)c1ccc(Oc2ccc(Br)cc2)cc1Br` (stereo not drawn) [I-185], the LogP is 3.06^[a].
With `N#Cc1cncn1CC(O)(c1ccc(Cl)cc1)C1CC1` (stereo not drawn) [I-305], the LogP is 2.27^[a].
With `OC(Cn1cncc1F)c1cnc(Oc2ccc(C(F)F)cc2)cc1C(F)(F)F` (stereo not drawn) [I-116], the LogP was 2.11^[a].
Turning to `CC(O)(Cn1cncc1Cl)c1ccc(Oc2ccc(OC(F)(F)F)cc2)c(Br)c1` (stereo not drawn) [I-157], the LogP is 2.90^[a].
As to `N#Cc1cncn1CC(O)(c1ccc(Cl)nc1F)C1(F)CC1` (stereo not drawn) [I-552], the LogP was 1.96^[a].
Regarding `N#Cc1cncn1CC(O)(c1cc(Br)c(F)cc1F)C1(F)CC1` (stereo not drawn) [I-573], the LogP is 2.47^[a].
Same read-out and setting: under `OC(Cn1cncc1F)c1ccc(Oc2ccc(C(F)F)cc2)nc1C(F)(F)F` (stereo not drawn) [I-148] stands 2.20^[a]; under `CC(O)(Cn1cncc1Cl)c1ccc(Oc2ccc(C(F)(F)F)cc2)c(Br)c1` (stereo not drawn) [I-160], 2.78^[a]; under `CC(C)CCCC(O)(Cn1cncc1C#N)C1(F)CC1` (stereo not drawn) [I-671], 2.82^[a].
For the molecule `CC1(C(O)(Cn2cncc2C#N)c2ccc(Cl)cc2F)CC1` (stereo not drawn) [I-441], the LogP was 2.68^[a].
`N#Cc1cncn1CC(O)(c1ccc(F)c(F)c1)C1(F)CC1` (stereo not drawn) [I-445]: the LogP is 2.17^[a].
For the molecule `CC(O)(Cn1cncc1F)c1cnc(Oc2ccc(OC(F)(F)F)cc2)cc1C(F)(F)F` (stereo not drawn) [I-241], the LogP is 2.51^[a].
As for `CCCCCCC(O)(Cn1cncc1C#N)C1(F)CC1` (stereo not drawn) [I-399], the LogP is 3.00^[a].
For the molecule `OC(Cn1cncc1Br)c1ccc(Oc2ccccc2)cc1Cl` (stereo not drawn) [I-27], the LogP was 2.21^[a].
For `N#Cc1cncn1CC(O)c1ccc(Oc2ccc(Br)nc2)cc1Cl` (stereo not drawn) [I-73], the LogP was 2.47^[a].
Regarding `N#Cc1cncn1CC(O)(c1ccc(C#CC2CC2)cc1F)C1(F)CC1` (stereo not drawn) [I-643], the LogP was 2.92^[a].
For `NC(=S)c1cncn1CC(O)(c1ccc(Cl)cc1Br)C1(F)CC1` (stereo not drawn) [I-505], the LogP was 1.92^[a].
For `N#Cc1cncn1CC(O)c1ccc(Oc2ccc(OC(F)(F)F)cc2)nc1C(F)(F)F` (stereo not drawn) [I-137], the LogP is 3.12^[a].
Consider `N#Cc1cncn1CC(O)(c1ccc(Cl)nc1Br)C1(F)CC1` (stereo not drawn) [I-556], for which the LogP was 1.99^[a].
As for `N#Cc1cncn1CC(O)(c1cc(Br)ccc1F)C1(F)CC1` (stereo not drawn) [I-631], the LogP was 2.31^[a].
For `OC(C#CCC1CCCCC1)(Cn1cncc1C(F)(F)F)C1(Cl)CC1` (stereo not drawn) [I-601], the LogP was 4.05^[a].
Regarding `N#Cc1cncn1CC(O)(c1ccc(C2CC2)cc1Cl)C1CC1` (stereo not drawn) [I-406], the LogP is 2.92^[a].
Regarding `N#Cc1cncn1CC(O)(c1ccc(F)nc1F)C1(F)CC1` (stereo not drawn) [I-551], the LogP was 1.79^[a].
Consider `CC(C)CC(O)(Cn1cncc1C#N)c1ccccc1C(F)(F)F` (stereo not drawn) [I-343], for which the LogP is 2.88^[a].
`CC(O)(Cn1cncc1Cl)c1ccc(Oc2ccc(Cl)nc2)cc1Cl` (stereo not drawn) [I-176]: the LogP is 2.13^[a].
`N#Cc1cncn1CC(O)(c1c(F)cc(F)cc1F)C1(F)CC1` (stereo not drawn) [I-518]: the LogP is 2.07^[a].
For `N#Cc1cncn1CC(O)(c1ccc(F)cc1F)C1CC1` (stereo not drawn) [I-410], the LogP was 2.18^[a].
In the case of `CC(C)(C)C(O)(Cn1cncc1C#N)c1ccc(F)c(Cl)c1` (stereo not drawn) [I-455], the LogP was 2.90^[a].
On the same count and under the same terms, under `CCC(O)(Cn1cncc1C#N)c1ccc(Cl)cc1` (stereo not drawn) [I-222] stands 2.32^[a].
For the molecule `CC(=O)c1cncn1CC(C)(O)c1cnc(Oc2ccc(Cl)cc2)cc1C(F)(F)F` (stereo not drawn) [I-250], the LogP was 2.78^[a].
As for `N#Cc1cncn1CC(O)(c1ccc(F)cc1Cl)C1(Cl)CC1` (stereo not drawn) [I-236], the LogP is 2.35^[a].
The same measure, in the same setting: under `CC(O)(Cn1cncc1Cl)c1cnc(Oc2ccc(Cl)cc2)cc1Br` (stereo not drawn) [I-177] stands 2.48^[a]; under `N#Cc1cncn1CC(O)c1ccc(Oc2ccc(Cl)nc2)cc1C(F)(F)F` (stereo not drawn) [I-10], 2.59^[a].
Turning to `N#Cc1cncn1CC(O)c1ccc(Cl)cc1Cl` (stereo not drawn) [I-144], the LogP is 2.12^[a].
On to `N#Cc1cncn1CC(O)(CC1CC1)c1ccc(Cl)c(F)c1` (stereo not drawn) [I-486], for which the LogP was 2.56^[a].
For `CC(O)(Cn1cncc1C#N)c1cnc(Oc2ccc(C(F)F)cc2)cc1C(F)(F)F` (stereo not drawn) [I-234], the LogP was 2.94^[a].
Regarding `N#Cc1cncn1CC(O)(c1cccc(Cl)c1F)C1(F)CC1` (stereo not drawn) [I-558], the LogP is 2.21^[a].
Take `N#Cc1cncn1CC(O)(C#CC1CCc2ccccc21)C1(Cl)CC1` (stereo not drawn) [I-602]: the LogP is 2.92^[a].
`CC(O)(Cn1cncc1F)c1cnc(Oc2ccc(Br)cc2)cc1C(F)(F)F` (single isomer, unassigned) [I-221]: the LogP is 2.39^[a].
As to `N#Cc1cncn1CC(O)(c1c(F)cc(F)cc1Br)C1(F)CC1` (stereo not drawn) [I-547], the LogP is 2.27^[a].
In the case of `CC(C)(C)CC(O)(Cn1cncc1C#N)c1ccc(C(F)(F)F)cc1F` (stereo not drawn) [I-273], the LogP is 3.55^[a].
For the molecule `N#Cc1cncn1CC(O)(c1cc(F)c(F)cc1Cl)C1(F)CC1` (stereo not drawn) [I-579], the LogP was 2.32^[a].
In the case of `CCCCC(O)(Cn1cncc1C#N)c1ccc(C(F)(F)F)cc1F` (stereo not drawn) [I-267], the LogP was 3.35^[a].
As for `COc1ccc(C#CC(O)(Cn2cncc2C#N)C2(Cl)CC2)cc1` (stereo not drawn) [I-321], the LogP is 2.51^[a].
Same read-out and setting: under `CC(O)(Cn1cncc1C#N)c1ccc(Oc2ccc(Cl)cc2)cc1F` (stereo not drawn) [I-188] stands 3.20^[a]; under `CC(C)(C)CC(O)(Cn1cncc1C#N)C1(F)CC1` (stereo not drawn) [I-374], 2.44^[a].
Turning to `CC(C)(C)C(O)(Cn1cncc1C#N)c1cc(Cl)cc(Cl)c1` (stereo not drawn) [I-463], the LogP is 3.22^[a].
Take `N#Cc1cncn1CC(O)(c1cc(Cl)ccc1F)C1(F)CC1` (stereo not drawn) [I-522]: the LogP was 2.25^[a].
On the same count and under the same terms, under `OC(Cn1cncc1Br)c1ccc(Oc2ccc(I)cc2)cc1Cl` (stereo not drawn) [I-28] stands 2.88^[a].
For `CC(O)(Cn1cncc1F)c1ccc(Oc2ccc(S(F)(F)(F)(F)F)cc2)nc1C(F)(F)F` (stereo not drawn) [I-297], the LogP was 2.62^[a].
`N#Cc1cncn1CC(O)(c1ccc(Cl)cc1F)C1CC1` (stereo not drawn) [I-413]: the LogP is 2.50^[a].
Still for that read-out and setting: under `CC(O)(Cn1cncc1C#N)c1cnc(Oc2ccc(C(F)(F)F)cc2)cc1C(F)(F)F` (stereo not drawn) [I-218] stands 3.23^[a]; under `CC(C)(C)CC(O)(Cn1cncc1C#N)c1ccc(Br)cc1Cl` (stereo not drawn) [I-334], 2.83^[a].
As for `OC(Cn1cncc1Br)c1ccc(Oc2ccc(Cl)cc2)cc1Br` (stereo not drawn) [I-24], the LogP was 2.68^[a].
As for `N#Cc1cncn1CC(=O)c1ccccc1` [IX-101], the chromatographic logP (reversed phase HPLC column, method [a]: LC-UV, acidic range, 0.1% formic acid in water and acetonitrile as eluent (linear gradient from 10% to 95% acetonitrile)) is 1.55.
Take `COC(Cn1cncc1C#N)c1ccc(Oc2ccc(Br)cc2)cc1C(F)(F)F` (stereo not drawn) [I-88]: the LogP was 4.25^[a].
Turning to `C#CC(O)(Cn1cncc1C#N)C1(Cl)CC1` (stereo not drawn) [I-670], the LogP is 1.36^[a].
`OC(Cn1cncc1Br)c1ccc(Oc2ccc(Br)cc2)cc1C(F)(F)F` (stereo not drawn) [I-26]: the LogP is 3.02^[a].
On the same count and under the same terms, under `N#Cc1cncn1CC(O)(c1ccc(F)cc1Cl)C1(F)CC1` (stereo not drawn) [I-349] stands 2.22^[a]; under `N#Cc1cncn1CC(O)(CC1CC1)c1ccc(F)c(Br)c1` (stereo not drawn) [I-496], 2.56^[a].
For `CC(C)(C)C(O)(Cn1cncc1C#N)c1cc(Br)cc(Br)c1` (stereo not drawn) [I-490], the LogP was 3.39^[a].
Regarding `C[Si](C)(C)CC(O)(Cn1cncc1C#N)c1ccccc1Br` (stereo not drawn) [I-307], the LogP is 3.50^[a].
With `N#Cc1cncn1CC(O)(c1ccccc1C(F)(F)F)C1(Cl)CC1` (stereo not drawn) [I-344], the LogP was 2.35^[a].
For the molecule `COC(Cn1cncc1C#N)c1ccc(Oc2ccc(Cl)cc2)cc1Br` (stereo not drawn) [I-61], the LogP was 4.08^[a].
Turning to `C[Si](C)(C#CC(O)(Cn1cncc1C#N)C1(F)CC1)c1ccccc1` (stereo not drawn) [I-595], the LogP is 3.04^[a].
Take `N#Cc1cncn1CC(O)(C#CC1CCCCC1)C1(F)CC1` (stereo not drawn) [I-543]: the LogP was 2.64^[a].
For `N#Cc1cncn1CC(O)(c1cc(Cl)c(F)c(Cl)c1)C1(F)CC1` (stereo not drawn) [I-477], the LogP was 2.74^[a].
`N#Cc1cncn1CC(O)(c1ccc(Br)cc1Br)C1(F)CC1` (stereo not drawn) [I-433]: the LogP was 2.71^[a].
With `N#Cc1cncn1CC(O)c1ccc(Oc2ccc(C(F)F)cc2)nc1C(F)(F)F` (stereo not drawn) [I-145], the LogP is 2.77^[a].
As for `N#Cc1cncn1CC(O)(c1ccc(C2CC2C2CC2)cc1Cl)C1(F)CC1` (stereo not drawn) [I-388], the LogP is 3.60^[a].
Turning to `N#Cc1cncn1CC(O)c1ccc(Oc2ccc(Cl)cc2)cc1C(F)(F)F` (stereo not drawn) [I-41], the LogP was 3.35^[a].
On the same count and under the same terms, under `CCCCC(O)(Cn1cncc1C#N)c1ccccc1F` (stereo not drawn) [I-287] stands 2.51^[a].
Regarding `N#Cc1cncn1CC(O)c1ccccc1Br` (stereo not drawn) [I-140], the LogP is 1.62^[a].
Consider `N#Cc1cncn1CC(O)c1ccc(Oc2ccc(Cl)cn2)cc1C(F)(F)F` (stereo not drawn) [I-66], for which the LogP is 2.75^[a].
Same read-out and setting: under `CCCC#Cc1ccc(C(O)(Cn2cncc2C#N)C2(F)CC2)c(F)c1` (stereo not drawn) [I-645] stands 3.29^[a].
Turning to `COC(Cn1cncc1C#N)c1ccc(Oc2ccc(Cl)cc2)cc1C(F)(F)F` (stereo not drawn) [I-81], the LogP was 4.15^[a].
Regarding `N#Cc1cncn1CC(O)(c1cc(Cl)cc(F)c1Cl)C1(F)CC1` (stereo not drawn) [I-571], the LogP is 2.52^[a].

For the origin of these results see patent US20200031778A1, “NOVEL 5-SUBSTITUTED IMIDAZOLYLMETHYL DERIVATIVES” (Bayer CropScience Aktiengesellschaft, priority 2016, published 2020).
